# Test: Human HepG2 cell viability assay in 384 well format
# Format: toxicity, cell-based
# Parameters: dose 125 nL, time 70.5 hour; concentration not given beside the values
# Conditions: HepG2 cells, read-out: Inhibition
row,Compound,cytotoxicity at 70.5 h [%]
1,O=C(C1CC1)N1C[C@H]2CNC[C@@]2(C(=O)NCCCc2ccccc2)C1,-1.55
2,N#Cc1cccc(CN2C(=O)C3(CCNCC3)Nc3ccccc32)c1,13.4
3,Cc1ncnc(N2CCCN(c3nc4ccccc4s3)CC2)c1C,7.7
4,Cc1ncsc1CN1CCN(C)C2(CCC(=O)N(CCO)CC2)C1 (stereo not drawn),3.92
5,COc1cc(-c2cc(C3CCOC3)c(C#N)c(N)n2)ccc1O (stereo not drawn),-6.12
6,COc1ccccc1[C@@H]1CN(Cc2csc(C(C)=O)c2)C[C@H]1C(=O)O,-3.94
7,COc1cccc(Cn2c(C)c(C)oc2=O)c1OC,1.78
8,NC(=O)COc1ccc(CN2CCC(O)(CN3CCCCC3)C2)cc1Cl (stereo not drawn),-12.1
9,Cc1ncsc1CCN(C)C(=O)c1ccc(CN2CCCCC2)cc1,0.585
10,CNC(=O)c1ccnc(N2CCCC(COc3cccc(C)c3)C2)c1 (stereo not drawn),-20.4
11,Cc1n[nH]c(C)c1C(N)C(=O)NCCc1csc(C(C)C)n1 (stereo not drawn),-11.3
12,COc1ccc(C2(C(=O)N3C[C@@H](C(=O)O)[C@H](C(C)C)C3)CC2)cc1,-6.04
13,O=C(CCCn1cncn1)N1CCC2(CCCN(CC3CC3)C2=O)C1 (stereo not drawn),18.3
14,COc1ccc(NC(=O)N2CCC3(CC2)NC(=O)CC3C(=O)O)cc1Cl (stereo not drawn),13.1
15,CC(C)(C)c1ncc(C(=O)N2CCC(N3CCSCC3)CC2)c(O)n1,-7.4
16,Cn1cc(CN(C(=O)C2COc3ccccc3C2)C2CC2)cn1 (stereo not drawn),-9.16
17,CCn1cc(-c2cc(-c3cc(CN(C)C)cs3)nc(N)c2C#N)c(C)n1,-6.34
18,CN1CCCC(CNS(=O)(=O)N2CCc3ccccc3C2)C1 (stereo not drawn),-10.7
19,CN(C)S(=O)(=O)N1CC[C@]2(O)CCN(c3cc(C#N)ccn3)C[C@@H]2C1,-7.65
20,O=C(NCCc1cscn1)c1coc(CN2CCOCC2)c1,-8.02
21,COCc1ncc(CN2C[C@@H](C(=O)O)[C@H](C(C)C)C2)cn1,9.21
22,CCOc1ccc(-n2nc(C)c(CC(C)=O)c2C)cc1C(N)=O,-2.04
23,CC(C)c1cc(NCC2(Cn3cccn3)CC2)nc(N)n1,-0.462
24,CCn1ccnc1-c1nccn1-c1ccccc1CN1CCOCC1,-8.91
25,CC(C)Cn1cncc1CNC(=O)c1cccc(-n2cnnc2)c1,8.85
26,Cc1cc(CN2C[C@H]3CC[C@@H]2CN(C2Cc4ccccc4C2)C3)on1,3.93

row,Compound,cytotoxicity at 70.5 h [%]
1,CCc1ccc(C(=O)N2CCC3(CCC(=O)N(CCN(C)C)C3)CC2)[nH]1,-1.77
2,O=C(NCC(O)c1cccc(O)c1)C1CCN(C2CCCCC2)CC1 (stereo not drawn),-11.8
3,Cc1cc2[nH]c(=O)oc2cc1S(=O)(=O)N1C[C@@H](N(C)C)[C@H](C(C)C)C1,-10.7
4,CCN(CC)C(=O)[C@@H]1C[C@H](N)CN1c1noc(-c2ccccc2)n1,-3.04
5,CC(C)N(CCO)C(=O)C1CCC(=O)N(CCc2ccc(Cl)cc2)C1 (stereo not drawn),-1.21
6,COc1ccc(CN(CC2CCCO2)c2nc3c(s2)c(C)nn3C)cc1 (stereo not drawn),41.8
7,CC(C)Cc1cc(C(=O)NC(C)(C)c2nnc(N)s2)n(C)n1,-6.76
8,CN(C)CC1(O)CCCN(C(=O)Cn2nc3ccccc3n2)CC1 (stereo not drawn),11.1
9,c1ccc(C(Cn2cnnc2)N2CCOCC2)nc1 (stereo not drawn),0.586
10,CNC(=O)c1cc(-n2ccnc2-c2cnc(N(C)C)nc2)ccc1OC,3.46
11,Cc1cc2c(c(-c3cncc(C(=O)N4CCCC4)n3)c1)OC(CN)C2 (stereo not drawn),-6.51
12,CSCC[C@H](NC(C)=O)c1nc(Cc2ccccc2)n[nH]1,6.58
13,CSc1nc(O)c(Cc2ccccc2)c(=O)n1-c1ccccc1,-6.85
14,Cc1cc(CN(C)Cc2csc(-c3cccs3)n2)n[nH]1,-1.87
15,CCn1ncnc1CN(C/C=C/c1ccccc1)CCOC,-1.42
16,COc1cccc(-c2cc(-c3nc(CN4CCN(C)CC4)no3)[nH]n2)c1,6.39
17,N#Cc1c(N)nc2c(c1-c1c[nH]nc1C1CCCCC1)COCC2,0.079
18,COc1ccc(C(C)n2ccnc2-c2cc3n(n2)CCCNC3)cc1F (stereo not drawn),-0.853
19,COc1ccc(C(C(=O)O)N(C)CCN2CCOCC2)c(C)c1 (stereo not drawn),-11.3
20,Cc1nc2c(N(CCC(N)=O)CCc3ccccc3)ncnc2o1,22
21,CCc1cc(NCC(N)=O)nc(N2CCCCC2)n1,-8.82
22,Cc1ccccc1CN1CCNC(=O)C1CC(=O)NCC1CCCCC1 (stereo not drawn),-7.5
23,CC(=O)CN1CCC2(CC1)c1ccccc1[C@@H](N1CCSCC1)[C@@H]2O,-5.27
24,COc1cccc(NC(=O)NCC2CCCN(C3CCOCC3)C2)c1 (stereo not drawn),-8.3
25,CCCS(=O)(=O)N[C@H]1CN(c2ncccc2C(N)=O)C[C@@H]1C(C)C,0.22
26,CCN(C)S(=O)(=O)NCC1CCCN(Cc2ccccc2F)C1 (stereo not drawn),-4.79

row,Compound,cytotoxicity at 70.5 h [%]
1,Cc1n[nH]c(C)c1CCCN(C)Cc1c[nH]nc1-c1ccc(F)cc1,-4.19
2,CCNC(=O)[C@@H]1C[C@H](NC(=O)Cn2ccnc2)CN1Cc1ccsc1,14.3
3,CC(=O)N[C@H]1CCN(C(=O)c2cc(Cn3cnc4ccccc43)[nH]n2)C1,-3.6
4,CC(C)n1cnnc1CN(C)C(=O)Cn1ccc2ccccc2c1=O,-8.95
5,O=C1NCC2=C1C(c1ccc(O)cc1)Nc1ccccc1N2 (stereo not drawn),-6.66
6,Cc1noc(CN(C)CC2(O)CCCN(CCC3CCCCC3)C2=O)n1 (stereo not drawn),-0.981
7,COCCNc1cc(-c2ccccc2CCN)c2cc[nH]c2n1,-2.8
8,CS(=O)(=O)c1ccc(CN2CCCC3(C2)C(=O)Nc2ccccc23)cc1 (stereo not drawn),24.9
9,COc1cc(N2CCC(c3nccn3Cc3ccccc3)CC2)ncn1,-1.15
10,CC(C)C1CN(C(=O)c2cn3cc(Cl)cnc3n2)CCCN1CC1CC1 (stereo not drawn),20.2
11,CN1CCc2[nH]nc(C(=O)N3CCCC4(CC3)CNC(=O)O4)c2C1 (stereo not drawn),-3.37
12,CC(=O)N[C@@H](CC(C)C)C(=O)N1CCC(n2cc(CC(C)C)nn2)CC1,6.61
13,CN(C)C(C(=O)N1CC(Oc2ccccc2F)C1)c1ccccc1F (stereo not drawn),12.3
14,O=C(c1cncc(NCC2COc3ccccc3C2)n1)N1CCCCC1 (stereo not drawn),0.974
15,O=C(c1cccc2ccnn12)N1CCC[C@H]1CN1CCCC1,6.92
16,Cc1nc2c(c(NCc3nc4ccccc4s3)n1)CCNCC2,-4.98
17,Cc1cc(C(=O)N(C)C2CCN(C)C2)c2ccc(F)cc2n1 (stereo not drawn),23.7
18,Cn1ncc2c(N3CCCC4(CCNC4)C3)nc(C(C)(C)C)nc21 (stereo not drawn),-11.5
19,COc1cccc(CC2(C(=O)O)CCN(c3ccc(Cl)cn3)CC2)c1,-3.25
20,Cc1ccc(OCC2CCCN(C(=O)CCn3ccccc3=O)C2)cc1 (stereo not drawn),0.753
21,Cc1sc2nc(CCN)nc(N3CCN(S(C)(=O)=O)CC3)c2c1C,-8.4
22,CC(=O)Nn1c(C)cc(CN2CCC(c3ccncc3)CC2)c1C,-2.26
23,CCC(Nc1cccc(OC)c1)C(=O)N(CCOC)Cc1cnn(C)c1 (stereo not drawn),-1.31
24,Cc1ncsc1CCN(C)Cc1cc2n(n1)CCN(Cc1ccco1)C2,-16.9
25,CS(=O)(=O)N1C[C@@H]2CC[C@H](C1)N(CCC(=O)NCc1ccco1)C2,4.49
26,CC(C)CN1CC(c2nc(-c3ccc(F)cc3)c[nH]2)CC1=O (stereo not drawn),-7.74

# From ChEMBL document CHEMBL3507680, “University of Dundee, Gates Library screen for HepG2 cell viability”
